# Results: patent US20080242542A1, “INDANILINE DYE, THERMAL TRANSFER RECORDING INK SHEET, THERMAL TRANSFER RECORDING METHOD, COLOR TONER, INKJET INK, AND COLOR FILTER” (FUJIFILM Corporation, priority 2007, published 2008)
# Assay: Light fastness of recorded image under Xe light
# Format: physicochemical
# Conditions: Xe light (17000 lux) for 7 days; retention of reflection density 1.0
# Description: Next, the recorded samples were exposed to an Xe light (17000 lux) for 7 days, and rested for the light stability (light fastness) of the recorded images. After the exposure, the status A reflection density of the part of each sample having an original status A reflection density of 1.0 before the exposure was measured, and the retention (by percentage) to the reflection density of 1.0 after exposure to that before exposure indicates the image stability. With the retention percentage, the samples were ranked in three, A (from 80% to less than 100%), B (from 60% to less than 80%) , C (less than 60%).
row,SMILES,Light Fastness
1,CCC(=O)NC1=CC(=Nc2ccc(N(CC)CC)cc2)C(C)=C(Cl)C1=O [Compound (1)],A (A (from 80% to less than 100%))
2,CCN(CC)c1ccc(N=C2C=C(NC(C)=O)C(=O)C=C2C)c(C)c1 [Comparative Dye 3],B (B (from 60% to less than 80%))
3,CCN(CC)c1ccc(N=C2C=C(NC(C)=O)C(=O)C(Cl)=C2C)c(C)c1 [Comparative Dye 4],A (A (from 80% to less than 100%))
4,CCN(CC)c1ccc(N=C2C=C(NC(=O)c3ccccc3)C(=O)C(Cl)=C2C)c(C)c1 [Comparative Dye 5],A (A (from 80% to less than 100%))
5,CCN(CC)c1ccc(N=C2C=C(NC(C)=O)C(=O)C(Cl)=C2C)cc1 [Comparative Dye 1],A (A (from 80% to less than 100%))

# Assay: Absorption spectrometry in ethyl acetate solution
# Format: physicochemical
# Conditions: 1×10^−6 mol/L, optical path length 10 mm
# Description: The thus-obtained compounds (1) to (4) were analyzed for absorption spectrometry in an ethyl acetate solution (concentration: 1×10^−6 mol/L, optical path length; 10 mm). The data of ^1H NMR spectrometry (in heavy chloroform) and MS spectrometry of the obtained compounds (1) to (4) are shown in Table 1 below.
row,SMILES,Maximum Absorption Wavelength [nm]
1,CCC(=O)NC1=CC(=Nc2ccc(N(CC)CC)cc2)C(C)=C(Cl)C1=O [Compound (1)],626
